These results are taken from patent US20230392180A1, “MICROSCOPIC IMAGING AND ANALYSES OF EPIGENETIC LANDSCAPE” (Sanford Burnham Prebys Medical Discovery Institute, priority 2020, published 2023).

Structures can show the parent of a compound that is named as a salt.

One data set has as its system GBM2 cells. Nature of the data set: Sensitization to radiation or TMZ. Type of data set: cell-based, human. To be noted: 200 uM, 4 days. As to the method: Sensitization to radiation or TMZ: Cells were plated at 1500 cells/well in 384-well optical bottom assay plates (PerkinElmer). Two sets of the experiment were prepared; DMSO (0.1%) was used for negative controls at 48 DMSO replicates per plate; 3 replicates (wells) were treated per compound. Cells in both sets were pre-treated with epigenetic compounds for 2 days prior to cytotoxic treatment. Cytotoxic treatment, either 200 uM temozolomide (TMZ, Sigma) or 1 Gy x-ray radiation (RS2000; RAD Source) was carried out for 4 days on single set (‘treatment set’); for TMZ treatment, DMSO control was given to the second set. A single radiation dose was given at day 3; TMZ was given twice at days 3 and 5 of the experiment. Cells were fixed, stained with DAPI, and scored using an automated microscope (Celigo; Nexcelom Bioscience). For each compound, fold change in cell number was calculated for both the “treatment set” (Drug+Cytotox) and the “control set” (Drug), compared to DMSO-treated wells in the control set. The effect of radiation or TMZ alone was calculated as fold reduction of DMSO-treated wells in the treatment set compared to DMSO-treated wells in the control set (Cytotox). The coefficient of drug interaction (CDI) was calculated as […]. […]

For the next data set, the system named is primary human fNPCs. Put plainly: MIEL-EpiTox of ToxCast Phase I/II+elk library compounds. To be noted: 10 μM, 72 h, H3K27ac and H3K27me3. The procedure:
Cells were treated with test compounds, then fixed and immunolabeled for epigenetic marks. The pattern of marks within each nucleus was analyzed to create multivariate signatures or “fingerprints” of each perturbation. Since the technique analyzes texture features rather than intensities and morphologies, culturing and immunostaining artifacts are reduced. MIEL is related to “cell painting”, in which multivariate analysis of multiplexed biomarkers was used to classify protein localization, cell subpopulations, and drug mechanisms of action. The multiparametric signatures of the cells (centroids) were plotted in 2D via multidimensional scaling (MDS), and support vector machine (SVM) classification was used to establish borders to divide the epigenetic signatures into distinct classes. MIEL was employed to probe the presence of epitoxic compounds in the EPA ToxCast Phase I/II+elk library and examined the effects of 352 compounds on primary human fNPCs (Thermo-Fisher, #A15654). Cells were incubated with 10 μM compound for 72 h, labeled with fluorescence-tagged antibodies to H3K27ac and H3K27me3, and imaged on a Vala Sciences IC200 cytometer. Features were derived using Acapella (Perkin Elmer) high-content imaging and analysis software. SVM classification was conducted as previously described. […] The same criteria were applied to determine toxicity.

The nature of data set [1]: Exposure estimated from publicly available information. To be noted: women, estimating 50-75 kg body weight.
The conditions of data set [2]: single report; cited from earlier work.
The conditions of data set [3]: cited from earlier work.

`Cn1nnc2c(C(N)=O)ncn2c1=O` [TMZ, temozolomide]: the “reduction in cell numbers” value with GBM2 cells is 50%.
On to `CCCCOC(=O)COc1ccc(Cl)cc1Cl` [2,4-D 1-butyl ester], for which the “MIEL-EpiTox class (epitoxic, cytotoxic, inert)” value in the data set on primary human fNPCs is “epitoxic hits producing the largest epigenetic perturbations”.
For `C[C@@H]1C[C@H]2[C@@H]3CCC4=CC(=O)C=C[C@]4(C)[C@@]3(F)[C@@H](O)C[C@]2(C)[C@@]1(O)C(=O)COS(=O)(=O)O` [dexamethasone sulfate], the “estimated concentrations reached following repeated administration” value in data set [1] was roughly 10 µM.
For `Cc1sc2c(c1C)C(c1ccc(Cl)cc1)=N[C@@H](CC(=O)Nc1ccc(O)cc1)c1nnc(C)n1-2` [OTX015], the “interaction with TMZ” value in data set [2] is “synergy”. In addition, in data set [3] (doses achieving biologically active levels), the “toxicity in clinical trials” value is on record as “low toxicity”. Also, in data set [3] (in vivo), the clinical benefits result was “no detectable clinical benefits”.
